Patent US20250275938A1, “COMPOSITIONS AND METHODS FOR TREATMENT OF CANCER” (SCIROSBIO (FZC), priority 2022, published 2025)

How the values were obtained:
[1] = test system: human hepatocellular carcinoma (HepG2) cells; experiment: MTT cell viability assay, HepG2; assay type: cell-based; details: 24 hours
Experimental: Cell lines and culture conditions. A human hepatocellular carcinoma (HepG2) and ovarian cancer (SKOV3) cells were obtained from National Centre for Cell Science (NCCS), Pune, India. The cells HepG2 and SKOV3 were sub-cultured in Eagle's Minimum Essential Medium (EMEM) and McCoy's 5a supplemented with 10% FBS at 5% CO2 and 37° C. […] The cells were allowed to attach 70% to the surface prior to treatment. A stock solution of all the drugs (10 mg/ml) was made in distilled H2O and diluted to the required concentrations. Suspensions were aspirated 10 times before treatment. Cells treated with vehicle control were used as a control.

[2] = test system: U87MG human glioma cell line; experiment: MTT cell viability assay, U87MG; assay type: cell-based
Experimental: (§1) Cell lines and culture conditions. A human glioma cell line, U87MG, a rat glioma cell line, C6, and normal HEK293T (Human Embryonic Kidney) cells were obtained from National Centre for Cell Science (NCCS), Pune, India. The cells were sub-cultured in Dulbecco's Modified Eagle's Medium (DMEM) supplemented with 10% FBS at 5% CO2 and 37° C. At 85% confluence, the cells were harvested using 0.25% trypsin and seeded in 25 cm^2 flasks, 96 well, and 6-well plates, according to the experiment being performed. The cells were allowed to attach 70% to the surface prior to treatment. A stock solution of all the drugs (10 mg/ml) was made in a vehicle and diluted to the required concentrations. Suspensions were aspirated 10 times before treatment. Cells treated with vehicle control were used as a control.
(§2) Cell viability assay. U87MG and C6 cells (5×10^3 cells/ml) were seeded in 96-well plates and exposed to different individual-drug treated groups with varying concentrations (0, 10, 40, 80, 120, and 160 μM) for a period of 24 hours, whereas HEK293T cells (5×10^3 cells/ml) were seeded at the inhibitory concentration (IC) at 50% of drugs, either alone or in combination. The individual-treated groups include Group I: untreated control glioma cells; Group II: TMZ-treated glioma cells; Group III: MET-treated glioma cells; and Group IV: EGCG-treated glioma cells.
(§3) After a 24 hour treatment period, the cells were allowed to react with MTT for 4 hours in dark at 37° C. At the end of the incubation period, the dark purple formazan crystals formed were solubilized with DMSO and the absorbance was measured spectrophotometrically at 595 nm (Molecular Devices Spectra-Max M5, USA). The experiments were repeated at least three times. To determine the cell viability, the percentage of viability was calculated as follows:
(§4) % viability=[(Optical density {OD} of treated cells−OD of Blank)/(OD of control−OD of blank)]×100.
(§5) Calculation of IC50 value. The IC50 of a drug was determined using y=m(x)+c equation (where: ‘y’ & ‘x’ are the respective coordinates of y & x-axis, ‘m’ is the slope and ‘c’ is the constant) derived from the trendlines of each scattered plots MMT assay. […] The IC50 and IC25 were also calculated for the dual combinations. The IC50 for the triple combination was calculated by keeping the IC25 of the dual-combination constant, and the third drug was used in varying concentrations (0, 10, 40, 80, 120, and 160 μM) (Table 1).
(§6) Combination index of drugs. According to the Chou-Talalay method, The statistical Combination Index (CI) of the drugs was performed according to the Chou-Talay method (Ma et al, Stem Cell Reports, 2017 9(6):1948-1960) to determine whether various drug combinations were synergistic, additive, or antagonistic, as shown in Table 1. This was performed for Groups V-IX using the following formula:
(§7) Combination index (CI) of Drugs 1 & 2=(IC50 of drug-1 in combination/IC50 of drug-1 individually)+(IC50 of drug-2 in combination/IC50 of drug-2 individually).

C6 rat glioma cell line = experiment: MTT cell viability assay, C6; assay type: cell-based
Experimental: as §1, §2, §3, §4, §5, §6, §7

[3] = test system: HEK293T (Human Embryonic Kidney) cells; experiment: Trypan blue exclusion cytotoxicity on normal cell line; assay type: cell-based; details: treated at IC50 values determined in U87MG and C6, 24 hours
Experimental: Cytotoxicity on a normal cell line.
Furthermore, to check for the cytotoxicity of the drugs, a trypan blue dye exclusion assay was performed on a normal cell line, HEK293T, using the IC50 values of each drug, individually and in combination, as determined in U87MG and C6 cells and shown in Table 2.

VEGF = experiment: Immunohistochemistry of tumor sections, VEGF; assay type: in vivo, rat; details: i.p. 7 days; tumor-control 73.58%
Experimental: Immunohistochemistry. For immunohistochemistry (IHC) analysis, 4 μm thick tissue sections were deparaffinized in xylene and hydrated by immersing in a series of graded ethanol concentration (100%, 95%, 75% and 50%). Endogenous peroxidase activity was blocked by incubating sections in 3% H2O2 solution prepared in methanol at room temperature for 10 minutes and were washed with PBS twice for 5 minutes each. Antigen retrieval was performed by immersing the slides in 300 ml of retrieval buffer (10 mM citrate buffer, pH 6.0) for one hour at 100° C. and were rinsed twice in PBS. Sections were then incubated with approximately 100 μl diluted primary antibodies of Ki67 (1:100 dilution, Elabscience, Wuhan, China) and Vascular Endothelial Growth Factor (VEGF) (1:100 dilution, Elabscience, Wuhan, China) for 30 minutes at room temperature. The slides were then washed twice with PBS and were then incubated with approximately 100 μl of diluted secondary antibody (Cat No. E-IR-R213, Elabscience, Wuhan, China) at room temperature for 30 minutes. Slides were then washed in PBS for 5 minutes, followed by incubation with approximately 100 μl diluted Horse Radish Peroxidase (HRP) conjugate for 30 minutes. […] The staining intensities were quantified using IHC Profiler, a plugin in ImageJ software, to determine the H-score (Histo score).

Ki67 = experiment: Immunohistochemistry of tumor sections, Ki67; assay type: in vivo, rat; details: i.p. 7 days; tumor-control 36.73%
[4] = LC/MS of drugs and active metabolites in plasma and brain (blood brain barrier); assay type: in vivo, rat; details: for Detected mass in LC-MS Plasma / Detected mass in LC-MS Brain: NA = not detected
Experimental: T, M & E (Sigma Aldrich, St. Louis, USA) were dissolved in sterile water and administered intra peritoneally for 7 days (from day 21 to day 27; where the day of tumor induction is considered day 0) to a rat with the dose specified in Table-4 (TME: 50+80+150 mg/kg body weight). After 7 days of treatment (on day 28), blood (plasma) was collected and the rat was euthanized, immediately the brain tissue was collected and stored at −80° C. The brain tissue was then processed accordingly to measure active metabolites through LC/MS.
To 100 μl of plasma or brain (0.5 g crushed in 0.5 mL of sterile water), 20 μl of the working internal standard solution was added. The samples were deproteinised with acetonitrile and the supernatant (100 μl) was injected into the chromatographic system. For the brain, as described above, ciprofloxacin solution (20 μl) was added to 100 μl of crushed brain. Then, repeating the plasma sample process, 20 μl of the solution was injected into the chromatographic system.

[5] = test system: human pancreatic cancer (PANC1) cells; experiment: MTT cell viability assay, PANC1; assay type: cell-based; details: 24 hours
Experimental: Cell lines and culture conditions: A human pancreatic cancer cell line PANC1 and human colon cancer cell line HCT116 were obtained from National Centre for Cell Science (NCCS), Pune, India. The PANC1 cells were sub-cultured in Dulbecco's Modified Eagle's Medium (DMEM) supplemented with 10% FBS at 5% C02 and 37° C. The HCT116 cells were sub-cultured in McCoy's 5A media supplemented with 10% FBS at 5% CO2 and 37° C. […] The cells were allowed to attach 70% to the surface prior to treatment. […] Suspensions were aspirated 10 times before treatment. Cells treated with vehicle control were used as a control. Cell viability assay: PANC1 and HCT116 cells ([…] cells/ml) were seeded in 96-well plates and exposed to different individual-drug treated groups with varying concentrations (0, 20, 40, 60, 80, 100, 120, 140, 160, 180 and 200 μM) for a period of 24 hours. The individual-treated groups include Group I: 5 Fluorouracil (5FU)-treated PANC1 and HCT116 cells; Group II: MET-treated PANC1 and HCT116 cells; Group III: EGCG-treated PANC1 and HCT116 cells and Group IV: 5FU+[…] PANC1 and HCT116 cells.

[6] = test system: human breast cancer (MDA-MB-453) cells; experiment: MTT cell viability assay, MDA-MB-453; assay type: cell-based; details: 24 hours
Experimental: Cell lines and culture conditions: A human breast cancer cell line MDA-MB-453 and human bone cancer cell line SaoS2 were obtained from National Centre for Cell Science (NCCS), Pune, India. The MDA-MB-453 cells were sub-cultured in Dulbecco's Modified Eagle's Medium (DMEM) supplemented with 10% FBS at 5% CO2 and 37° C. The SaoS2 cells were sub-cultured in McCoy's 5A media supplemented with 10% FBS at 5% CO2 and 37° C. […] The cells were allowed to attach 70% to the surface prior to treatment. […] Suspensions were aspirated 10 times before treatment. Cells treated with vehicle control were used as a control. Cell viability assay: MDA-MB-453 and SaoS2 cells (5×10^3 cells/ml) were seeded in 96-well plates and exposed to different individual-drug treated groups with varying concentrations (0, 20, 40, 60, 80, 100, 120, 140, 160, 180 and 200 μM) for a period of 24 hours.

[7] = as used in the triple combination for CI
[8] = triple combination TME 50+80+150 mg/kg i.p. 7 days
[9] = individually treated T, M and E, i.p. 7 days

CNC(=O)c1cc(Oc2ccc(NC(=O)Nc3ccc(Cl)c(C(F)(F)F)c3)cc2)ccn1 [SOR, Sorafenib]
cell viability (MTT), in words [1]: reduction in cell viability in a dose-dependent fashion

Cn1nnc2c(C(N)=O)ncn2c1=O [TMZ, 3-methyl-3-oxoimidazo[5,1-d] [1,2,3,5] tetrazine-8-carboxamide]
IC50 ([2]; Homo sapiens, U-87 MG, individual drug, 24 hours, mean ± SD, no unit in table, test concentrations given in μM, read-out: Inhibitory Concentration at 50% (IC50) U87MG Cells): 77 ± 1.14 µM | IC25 U87MG [2, 7]: 18.94 µM | IC50 (C6 rat glioma cell line; Rattus norvegicus, C6, individual drug, 24 hours, mean ± SD, no unit in table, test concentrations given in μM, read-out: Inhibitory Concentration at 50% (IC50) C6 Cells): 72 ± 1.32 µM | IC25 C6 (C6 rat glioma cell line; [7]): 31.76 µM | toxicity in normal HEK293T cells [3]: higher toxicity | cytoplasmic positivity for VEGF (H-score) (VEGF): 25.83% | Ki67 nuclear positivity rate (Ki67): 13.14% | transport across the blood brain barrier, in words ([4]; administered individually and in combination): crossed BBB in the form of their active metabolites | Detected mass in LC-MS Plasma [4, 8]: 198.93

O=c1[nH]cc(F)c(=O)[nH]1 [5FU, 5-Fluorouracil]
cell viability (MTT), in words [5]: reduction in cell viability in a dose-dependent fashion

COc1cccc2c1C(=O)c1c(O)c3c(c(O)c1C2=O)C[C@@](O)(C(=O)CO)C[C@@H]3O[C@H]1C[C@H](N)[C@H](O)[C@H](C)O1 [DOX, Doxorubicin]
cell viability (MTT), in words [6]: reduction in cell viability in a dose-dependent fashion

NC(=O)c1[nH]cnc1N [AIC, 5-amino-imidazole-4-carboxamide]
Detected mass in LC-MS Brain [4, 9]: 123.09 | Detected mass in LC-MS Plasma [4, 9]: 127.02 | Detected mass in LC-MS Brain [4, 8]: 123.05 | Detected mass in LC-MS Plasma [4, 8]: 127.02
